Results as given in the supplement of paper PMC10307832.

What was measured:
Assay in all cases: relative viability (nuclei count vs DMSO), 5 days (fraction); higher = more cells survive
[1] = system: NCI-H1993
Summary of the method: (§1)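 A single step with final 0.05% Triton X-100, 1% formaldehyde and 1 ug/ml Hoechst fixed the cells and stained nuclei 5 days after treatment. Lung cancer cell lines in 1536-well plates had been treated by pin tool the day after seeding with one drug alone or a fixed anchor-drug dose plus five library-drug doses (not always all listed) in √10 steps, and nuclei were counted on 4× images. Relative viability is the ratio of nuclei in treated wells to nuclei in vehicle wells, taken as the median of duplicate plates.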

[2] = system: HARA
Summary of the method: as §1

[3] = system: HCC-44
Summary of the method: as §1

[4] = system: 201T
Summary of the method: as §1

[5] = system: NCI-H23
Summary of the method: as §1

[6] = system: NCI-H650
Summary of the method: as §1

[7] = system: NCI-H2023
Summary of the method: as §1

[8] = system: NCI-H838
Summary of the method: as §1

[9] = system: LOU-NH91
Summary of the method: as §1

[10] = system: LCLC-103H
Summary of the method: as §1

[11] = system: NCI-H1395
Summary of the method: as §1

CC(=O)O[C@@]12CO[C@@H]1C[C@H](O)[C@@]1(C)C(=O)[C@H](O)C3=C(C)[C@@H](OC(=O)[C@H](O)[C@@H](NC(=O)OC(C)(C)C)c4ccccc4)C[C@@](O)([C@@H](OC(=O)c4ccccc4)[C@H]21)C3(C)C [Docetaxel] + N=C(N)NC(=N)NCCc1ccccc1 [Phenformin] (partner 250 µM)
relative viability ([1]; first compound 0.0002 µM): 0.559
relative viability ([1]; first compound 0.000632 µM): 0.604
relative viability ([1]; first compound 0.002 µM): 0.556
relative viability ([1]; first compound 0.006325 µM): 0.489
relative viability ([1]; first compound 0.02 µM): 0.439
relative viability ([2]; first compound 0.0002 µM): 0.387
relative viability ([2]; first compound 0.000632 µM): 0.19
relative viability ([2]; first compound 0.002 µM): 0.0801
relative viability ([2]; first compound 0.006325 µM): 0.0508
relative viability ([2]; first compound 0.02 µM): 0.0419
relative viability ([3]; first compound 0.0002 µM): 0.185
relative viability ([3]; first compound 0.000632 µM): 0.113
relative viability ([3]; first compound 0.002 µM): 0.113
relative viability ([3]; first compound 0.006325 µM): 0.101
relative viability ([3]; first compound 0.02 µM): 0.0735
relative viability ([4]; first compound 0.0002 µM): 0.4
relative viability ([4]; first compound 0.000632 µM): 0.366
relative viability ([4]; first compound 0.002 µM): 0.36
relative viability ([4]; first compound 0.006325 µM): 0.342
relative viability ([4]; first compound 0.02 µM): 0.242
relative viability ([5]; first compound 0.0002 µM): 0.801
relative viability ([5]; first compound 0.000632 µM): 0.702
relative viability ([5]; first compound 0.002 µM): 0.475
relative viability ([5]; first compound 0.006325 µM): 0.2
relative viability ([5]; first compound 0.02 µM): 0.121
relative viability ([6]; first compound 0.0002 µM): 0.447
relative viability ([6]; first compound 0.000632 µM): 0.397
relative viability ([6]; first compound 0.002 µM): 0.332
relative viability ([6]; first compound 0.006325 µM): 0.19
relative viability ([6]; first compound 0.02 µM): 0.21
relative viability ([7]; first compound 0.0002 µM): 0.358
relative viability ([7]; first compound 0.000632 µM): 0.292
relative viability ([7]; first compound 0.002 µM): 0.118
relative viability ([7]; first compound 0.006325 µM): 0.0961
relative viability ([7]; first compound 0.02 µM): 0.0806
relative viability ([8]; first compound 0.0002 µM): 0.533
relative viability ([8]; first compound 0.000632 µM): 0.386
relative viability ([8]; first compound 0.002 µM): 0.198
relative viability ([8]; first compound 0.006325 µM): 0.161
relative viability ([8]; first compound 0.02 µM): 0.108
relative viability ([9]; first compound 0.0002 µM): 0.661
relative viability ([9]; first compound 0.000632 µM): 0.625
relative viability ([9]; first compound 0.002 µM): 0.41
relative viability ([9]; first compound 0.006325 µM): 0.317
relative viability ([9]; first compound 0.02 µM): 0.269
relative viability ([10]; first compound 0.0002 µM): 0.347
relative viability ([10]; first compound 0.000632 µM): 0.344
relative viability ([10]; first compound 0.002 µM): 0.308
relative viability ([10]; first compound 0.006325 µM): 0.282
relative viability ([10]; first compound 0.02 µM): 0.248
relative viability ([11]; first compound 0.0002 µM): 0.434
relative viability ([11]; first compound 0.000632 µM): 0.45
relative viability ([11]; first compound 0.002 µM): 0.442
relative viability ([11]; first compound 0.006325 µM): 0.283
relative viability ([11]; first compound 0.02 µM): 0.334
